Test [1] has as its target T1, serotonin (5-HT) 2C receptor (Rattus norvegicus, UniProt P08909).
T1 construct: increased genioglossus activity and reduced upper airway collapsibility in anesthetized rats; from tissue; host or cells: anesthetized rats (in vivo; hypoglossal motor nucleus / brainstem)
T1 sequence (P08909 33-460): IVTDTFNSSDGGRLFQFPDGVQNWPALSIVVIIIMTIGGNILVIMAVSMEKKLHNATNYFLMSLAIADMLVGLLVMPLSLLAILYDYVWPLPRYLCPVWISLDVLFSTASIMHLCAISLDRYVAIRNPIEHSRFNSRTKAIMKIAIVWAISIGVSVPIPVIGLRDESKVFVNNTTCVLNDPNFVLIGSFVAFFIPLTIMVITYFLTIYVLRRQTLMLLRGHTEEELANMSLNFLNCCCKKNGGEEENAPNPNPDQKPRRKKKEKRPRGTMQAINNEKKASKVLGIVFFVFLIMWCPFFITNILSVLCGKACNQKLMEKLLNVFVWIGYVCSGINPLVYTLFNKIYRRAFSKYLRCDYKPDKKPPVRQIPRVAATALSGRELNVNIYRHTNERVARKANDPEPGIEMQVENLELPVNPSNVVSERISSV
Particulars: anesthetized rats; cited from earlier work.

For the next test, the system named is OSA patients. Put plainly: Crossover pilot trial, lorcaserin 15 mg or placebo before bedtime for one night; polysomnography with pneumotach and oronasal mask. In kind it is in vivo, human. Particulars: single patient, hypopneas present in both conditions. As for the experimental part:
In a crossover pilot trial including 6 OSA patients, the patients were administered in random order lorcaserin 15 mg or placebo before bedtime for one night.
Patients were outfitted with the usual polysomnography equipment plus a pneumotach and oronasal mask for accurate ventilation measurements. The effect of lorcaserin on several ventilatory parameters reflecting the upper airway collapsibility and muscle activity were measured using validated algorithms.

Regarding `COc1cc(CC(C)N)c(OC)cc1I` (stereo not drawn) [DOI, 2,5-dimethoxy-4-iodoaminophentamine], in test [1], the genioglossus activity result is “increased” and the upper airway collapsibility entry was “reduced”.

With `C[C@H]1CNCCc2ccc(Cl)cc21` [lorcaserin, (1R)-8-chloro-1-methyl-2,3,4,5-tetrahydro-1H-3-benzazepine], in the test on OSA patients, the “ventilation during NREM sleep of a patient, lorcaserin night vs placebo (FIG. 2)” value was “increased substantially”.

These data come from patent US20240226110A1, “5-HT2C AGONIST FOR USE IN TREATING CONDITIONS ASSOCIATED WITH CENTRAL HYPOVENTILATION” (APNIMED, INC. (DELAWARE), priority 2021, published 2024).
